SMILES strings stand for the structures.

In the assay the test system is two human glioblastoma cell lines and a rat glioma cell line. As to the kind of experiment: Fluorescein peptide uptake, fluorescence microscopy, three glioma lines. The class given is cell-based. The settings on record: 1 μM peptide, 10^6 cells, all three cell types. The protocol:
Synthetic peptides labeled with an N-terminal fluorescein were synthesized to test the ability of a shuttle domain to enter brain tumor and endothelial cells. The amino acid sequences for the shuttle domain was derived from HIV Tat amino acid 47 to 56 ([…] SEQ ID NO:23)(Robert-Guroff et al., J. Virol. 64:3391-3398, 1990) to which AGGG was added to the N-terminus, and the antennapedia homeodomain from drosophila (ANT) ([…] SEQ ID NO:24) (Astriab-Fisher et al., Pharm. Res., 19:744-754, 2002). A synthetic peptide (PTD-5) reported to have similar properties as Tat and ANT was also tested (Mai J. C. et al, Cancer Res. 2001; 61: 7709-7712.). Uptake was tested in two human glioblastoma cell lines and a rat glioma cell line, the latter being used for the rat brain tumor model. A 1 μM concentration of each peptide was added to 10^6 cells in a 6 well plate. […] The Tat and ANT peptides were doubled in length by the addition of […] (SEQ ID NO: 25), amino acids 42 to 55 from a human cyclin-dependent kinase inhibitor 2A (melanoma, p16, inhibits CDK4) (CDKI), transcript variant 4, mRNA (accession no. NM_058195). This domain binds MDM2 and inhibit ubiquination of P53, a tumor suppressor protein. […] Only the combination of Tat-CDKI was toxic to the cells, 65% killing for T98G and 61% killing for RG2 cells. […] Similar results were obtained with A172 cells. […]

In the case of `C[C@H](N)C(=O)NCC(=O)NCC(=O)NCC(=O)N[C@@H](Cc1ccc(O)cc1)C(=O)NCC(=O)N[C@@H](CCCNC(=N)N)C(=O)N[C@@H](CCCCN)C(=O)N[C@@H](CCCCN)C(=O)N[C@@H](CCCNC(=N)N)C(=O)N[C@@H](CCCNC(=N)N)C(=O)N[C@@H](CCC(N)=O)C(=O)N[C@@H](CCCNC(=N)N)C(=O)N[C@@H](CCCNC(=N)N)C(=O)N[C@@H](CCCNC(=N)N)C(=O)O` [Tat], the “fluorescence labeling of cells (uptake)” value is given as “preferentially labeled the cell nuclei”.

Values taken from patent US7339042B2, “Gene delivery to tumors” (University of Florida Research Foundation, Inc., priority 2003, dated 2008).
